{
  "source": "patent US7589065B2",
  "about": "“Catalysis of the cis/trans-isomerisation of secondary amide peptide compounds” (Max-Planck Gesellschaft zur Forderung der Wissenschaften, …, priority 2001, dated 2009)",
  "key": {"[1]": {"target": "DnaK (Escherichia coli, UniProt P0A6Y8)", "sequence (P0A6Y8 whole entry)": "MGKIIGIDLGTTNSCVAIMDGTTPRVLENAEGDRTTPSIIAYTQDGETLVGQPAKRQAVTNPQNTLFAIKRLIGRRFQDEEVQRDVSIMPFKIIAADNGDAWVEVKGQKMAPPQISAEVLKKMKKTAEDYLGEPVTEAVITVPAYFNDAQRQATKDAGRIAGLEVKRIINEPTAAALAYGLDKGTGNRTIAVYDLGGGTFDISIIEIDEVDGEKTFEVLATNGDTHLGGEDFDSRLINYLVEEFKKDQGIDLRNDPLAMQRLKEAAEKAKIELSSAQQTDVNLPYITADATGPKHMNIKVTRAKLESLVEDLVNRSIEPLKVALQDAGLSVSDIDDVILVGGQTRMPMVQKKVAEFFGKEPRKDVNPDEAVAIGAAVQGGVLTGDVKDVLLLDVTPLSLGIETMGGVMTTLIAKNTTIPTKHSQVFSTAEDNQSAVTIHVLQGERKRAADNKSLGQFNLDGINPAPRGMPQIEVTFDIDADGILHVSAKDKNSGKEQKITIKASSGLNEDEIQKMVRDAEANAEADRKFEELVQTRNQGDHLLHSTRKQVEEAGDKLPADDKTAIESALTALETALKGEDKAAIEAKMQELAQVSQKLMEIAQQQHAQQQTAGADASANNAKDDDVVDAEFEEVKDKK", "assay": "biochemical", "protocol": "(§1) RNAse T1 contains a Ser-Pro sequence with a cis conformation at the sequence site 38/39. […] In detail, the protein is unfolded by suitable additives and the renaturation rate is measured and registered after removal of the additives, e.g. by rapid dilution. As is shown (Scholz et al., Biol. chem. 1998, March; 379(3): 361-5), the exchange of the prolin 39 with an alanine (P39A) leads to a protein mutant whose foldback rate is […] influenced by this peptide bond. Added APIase, dependent on concentration, catalyses the isomerisation of this non-prolyl peptide bond and, thus, the foldback of the P39A mutant.\n(§2) […] RNAse T1 P39A was incubated with 5 M guanidinium-Cl and 0.1 M Tris-HCl at pH 8 at 15° C. for 60 min. The foldback at 15° C. was started by a 40-fold dilution of the unfolded protein in foldback buffer (0.1 Tris-HCl, 50 mM KCl, 11 mM MgCl2) at pH 8. The foldback was determined as increase of the protein fluorescence at 320 nm (10 nm width of band) with excitation of 278 nm (1.5 nm width of band) with a Jobin-Yvon-Spex Fluoromax-2 fluorescence spectrometer."}, "[2]": {"target": "T1, APIase activity of DnaK (Escherichia coli, UniProt P0A6Y8)", "T1 construct": "purchased SIGMA-ALDRICH CHEMIE GmbH, Germany", "assay": "Inhibition of the APIase activity of DnaK in the spectrophotometric Ala-Leu activity test", "format": "biochemical", "protocol": "The peptide bond of the substrate Ala-Leu is to about 99% in the trans conformation at pH 7.4. An increase of the proton concentration of the aqueous Ala-Leu solution to about 100 mM results in a shift of the equilibrium of the conformations to a higher content of the peptide with the cis conformation. […] The isomerisation rate can be measured when the substrate is subjected to a pH modification that has an influence on the cis/trans equilibrium of the substrate and when the rate of the pH modification is higher than the isomerisation rate of the substrate. In this context, the isomerisation rate corresponds to the sum of the individual rates cis to trans and trans to cis of the two conformation isomers of the substrate. In the present example, a so-called Stopped-Flow device from the company Applied Photophysics Ltd. (England) is used. This spectroscopic device makes a rapid mixture of two components and, subsequently, a collection of spectroscopic data, which is rapid and […], possible. Moreover, an accompanying software makes it possible for the rate constants (kobs) to be calculated while assuming a concentration/time law that corresponds to a so-called “first-order time law”. […]"}, "[3]": {"assay": "Stopped-flow spectroscopic test of catalysis of the cis/trans isomerisation of Ala-Leu (APIase activity)", "format": "biochemical", "description": "The peptide bond of the substrate Ala-Leu is to about 99% in the trans conformation at pH 7.4. […] The isomerisation rate can be measured when the substrate is subjected to a pH modification that has an influence on the cis/trans equilibrium of the substrate and when the rate of the pH modification is higher than the isomerisation rate of the substrate. In this context, the isomerisation rate corresponds to the sum of the individual rates cis to trans and trans to cis of the two conformation isomers of the substrate. In the present example, a so-called Stopped-Flow device from the company Applied Photophysics Ltd. (England) is used. This spectroscopic device makes a rapid mixture of two components and, subsequently, a collection of spectroscopic data, which is rapid and time-independent, possible. Moreover, an accompanying software makes it possible for the rate constants (kobs) to be calculated while assuming a concentration/time law that corresponds to a so-called “first-order time law”. For the detection of the catalysis, the following assay was selected: • Stock solution Ala-Leu (Bachem, Switzerland) 10 mM dissolved in Aqua dest. with pH 2.0, adjusted by means of HCl • Buffer solution: 12.5 mM Tris, 50 mM KCl, 11 mM MgCl2 with HCl adjusted to pH 8.8 DnaK (SIGMA-ALDRICH CHEMIE GmbH, Germany), or produced in a molecular biological way\nAfter mixing the components in the Stopped-Flow device, the reaction solution had the following concentrations: 1.66 mM Ala-Leu, 10.4 mM Tris, 41.6 mM KCl, 9.2 mM MgCl2. The pH was 7.6. All the solutions were kept constant at a temperature of 25° C.\nThe thickness of the coating of the silica cuvets was 2 mm, the measuring wave length was 220 nm.\nThe following solutions were used: • Buffer solution: 12.5 mM Tris, 50 mM KCl, 11 mM MgCl2. • Substrate solution: 20 mM Ala-Leu, dissolved in Aqua dest. at pH 2.0. • DnaK stock solution: 20 μM in buffer solution a\nThe pH of the solution in the cuvet was 7.3 each. The error lines indicated result from three independent measurements for the determination of the rate constant kobs with a DnaK concentration.\nIn order to establish whether Cyp18 catalyses the cis/trans isomerisation of the dipeptide Ala-Leu, the isomerisation rate was analysed in the presence of up to 8.4 μM Cyp18: • Human Cyp18 was either bought (SIGMA-ALDRICH CHEMIE GmbH, Germany) or produced as recombinant enzyme (E. coli cultures). The cyclophilin concentration of the cyclophilin stock solution of 1.14 mM was determined by means of titration against the cyclophilin inhibitor cyclosporin A (SIGMA-ALDRICH CHEMIE GmbH, Germany). The substrate Ala-Leu (BACHEM, Switzerland) used was produced as 10 mM stock solution in water with a pH of 2.0. The buffer solution used contained a mixture of the following chemicals: 12 mM Tris, 50 mM KCl, 11 mM MgCI2 and was adjusted with HCl to a pH of 8.8. The measurement of the isomerisation rate of the substrate took place with the Stopped-Flow-Photometer (Applied Photophysics Ltd., England) at 25°C. with 228 nm using 1 cm quartz cuvets. By adding the substrate to the mixture of buffer and Cyp18, solutions were produced in the cuvet with Cyp18 concentrations of 0, 208, 416, 625, 833 and 8,330 nM and 1.66 mM Ala-Leu each with a pH of 7.9."}, "[4]": {"assay": "2D 1H NMR exchange (NOESY) measurement of cis/trans isomerisation in the pentapeptide", "format": "biochemical", "details": "for relative intensity of the cross signal of the peptide bond Ala-Tyr / relative intensity of the cross signal of the peptide bond Tyr-Ala: 25 mM pentapeptide, pH 7.1, 278° K; for relative intensity of the cross signal of the peptide bond Ala-Tyr: no addition 3.50 ± 0.51; for relative intensity of the cross signal of the peptide bond Tyr-Ala: no addition 3.89 ± 0.32", "excerpt": "A further possibility, only described in 1998, is the determination of the cis/trans isomerisation rate of secondary amide peptide bonds containing aromatic amino acids by means of 2D 1H NMR exchange experiments (Scherer G. et al., 1998, JACS 120:5568-5574). In Example 8, this NMR method is used to determine a catalytic acceleration of the cis/trans isomerisation of the peptide bonds Ala-Tyr and Tyr-Ala within the pentapeptide Ala-Ala-Tyr-Ala-Ala. The acceleration is accomplished by catalytic amounts of DnaK.\nNMR Device: Bruker DRX-500, Equipped with z-gradient\n• FIG. 8: The alanine methyl region from the two-dimensional exchange 1H-NMR spectrum of 25 mM Ala-Ala-Tyr-Ala-Ala in 25 mM Tris, 11 mM MgCl2, 50 mM KCl, 9:1H2O:D2O, pH 7.1 at 278° K. The mixing time of the phase-sensitive NOESY was 330 ms. Each FID had 184 scans. The amount of data from t1×t2=512×8192 points covered a spectral range of 5501 Hz×5482 Hz. The correction of the base line was carried out by adjustment with a polynom of fifth order in the F2 dimension. […] The experiment was carried out under identical conditions as described above. In addition, 20 μM DnaK was contained in the measuring solution.\nIn a further analysis of the method of the two-dimensional NOESY experiment illustrated in Example 8, the cross signals can be quantified by means of common mathematical techniques."}, "[5]": {"tested_on": "RNAse T1 P39A", "assay": "Foldback of RNAse T1 P39A catalysed by APIase", "format": "biochemical", "details": "1 μM DnaK, 15° C., pH 8; without APIase 6.67×10^−4", "protocol": "as §1, §2"}, "[6]": {"details": "DnaK 250 and 1,000 nM, 10° C., pH 7.8", "quoted_text": "The details of Example 5 are described as follows: • Measuring device: Spectrophotometer Diodenarray HP8452A (Hewlett Packard, USA) • Substrate: Suc-Ala-Phe-Pro-Phe-NHNp (SEQ ID NO:2) (BACHEM, Switzerland) • Protease: Chymotrypsin (Merck, Germany) • Measure temperature: 10° C. • Buffer: 35 mM Hepes, pH 7.8 • Protease solution for use: 5 mg protease per ml buffer • Substrate solution for use: 35 mg substrate dissolved in 1 ml DMSO • DnaK solution for use: 30 μM in buffer • Cuvet: 1 ml quartz cuvet, thickness of layer 1 cm • Measuring wave length: 390 nm\nProcess: After attemperating a mixture of substrate, DnaK and buffer, the reaction is started by rapid addition and homogenous distribution of the protease solution for use. In this way, a chymotrypsin concentration of 0.83 mg/ml is achieved in the cuvet. By means of the substrate amount contained in the cuvet, a final extinction of about 0.43 is accomplished after complete turnover of the substrate. The concentrations of DnaK contained in the cuvet were 0.250 and 1,000 nM."}},
  "data": [
    {"compound": "CCCCCCCCCCCC(=O)NC(CC(=O)O)C(=O)O", "note": "(stereo not shown) [28/B7]", "values": [
      {"measurement": "IC50", "setting": "[1]", "result": 177, "unit": "µM"}
    ]},
    {"compound": "CCCCCCCCCCCC(=O)NC(Cc1c[nH]c2ccccc12)C(=O)O", "note": "(stereo not shown) [28/C8]", "values": [
      {"measurement": "IC50", "setting": "[1]", "result": 55.3, "unit": "µM"}
    ]},
    {"compound": "CCCCCCCC/C=C\\CCCCCCCC(=O)NC(CC(C)C)C(=O)NCCc1ccccc1", "note": "(stereo not shown) [30/B4]", "values": [
      {"measurement": "IC50", "setting": "[1]", "result": 7.5, "unit": "µM"}
    ]},
    {"compound": "CCCCCCCCCCCCCCCC(=O)NCc1ccc(C(=O)NCC2CCC(C(=O)O)CC2)cc1", "note": "(stereo not shown) [37/B11]", "values": [
      {"measurement": "IC50", "setting": "[1]", "result": 5.9, "unit": "µM"}
    ]},
    {"compound": "CSCC[C@H](NC(=O)[C@H](CC(C)C)NC(=O)CNC(=O)[C@H](Cc1ccccc1)NC(=O)[C@H](Cc1ccccc1)NC(=O)[C@H](CCC(N)=O)NC(=O)[C@H](CCC(N)=O)NC(=O)[C@@H]1CCCN1C(=O)[C@H](CCCCN)NC(=O)[C@@H]1CCCN1C(=O)[C@@H](N)CCCN=C(N)N)C(N)=O", "note": "[substance P]", "values": [
      {"measurement": "IC50", "setting": "[2]", "result": "76 ± 16", "unit": "µM"}
    ]},
    {"compound": "Cyp18: human peptidyl-prolyl cis/trans isomerase of the cyclophilin family, EC 5.2.1.8, P05092", "values": [
      {"measurement": "rate constants kobs of the isomerisation of Ala-Leu", "setting": "[3]; Cyp18 0 to 8,330 nM, independent of concentration, 1.66 mM Ala-Leu, pH 7.9, 25° C., 228 nm", "result": "about 0.43±0.03 s^−1"},
      {"measurement": "acceleration of the cis to trans reaction of Ala-Leu (in words)", "setting": "[3]; up to 8.4 μM Cyp18, observation period 20 seconds", "result": "no acceleration of the cis to trans reaction could be observed"}
    ]},
    {"compound": "DnaK: protein with APIase activity, bought from SIGMA-ALDRICH or produced in a molecular biological way", "values": [
      {"measurement": "rate constant (kobs) of the cis/trans isomerisation of Ala-Leu", "setting": "[3]; 624 nM DnaK, 1.66 mM Ala-Leu, pH 7.6, 25° C., non-catalysed reaction 0.36 s^−1", "result": 0.55, "unit": "s⁻¹"},
      {"measurement": "time until the conformation equilibrium occurs", "setting": "[3]; 624 nM DnaK, without DnaK about 20 seconds", "result": "less than 10 seconds"},
      {"measurement": "change of the relative intensity of the Ala-Tyr cross signal (in words)", "setting": "[4]; 20 μM DnaK", "result": "nearly doubles"},
      {"measurement": "influence on the cis/trans isomerisation rate of the Tyr-Ala peptide bond (in words)", "setting": "[4]; 20 μM DnaK", "result": "no influence"},
      {"measurement": "relative intensity of the cross signal of the peptide bond Ala-Tyr", "setting": "[4]; 20 μM addition", "result": "6.37 ± 0.57"},
      {"measurement": "relative intensity of the cross signal of the peptide bond Tyr-Ala", "setting": "[4]; 20 μM addition", "result": "3.39 ± 0.45"},
      {"measurement": "rate constant of the foldback of RNAse T1 P39A", "setting": "[5]", "result": "9.77×10^−4 -s"},
      {"measurement": "influence on the peptidyl-prolyl cis/trans isomerisation rate of the substrate (in words)", "setting": "[6]", "result": "did not show a visible influence on the cis/trans isomerisation rate of the substrate"}
    ]},
    {"compound": "FKBP12: peptidyl-prolyl cis/trans isomerase from SIGMA-ALDRICH", "values": [
      {"measurement": "catalysis of the cis/trans isomerisation of the Ala-Tyr and Tyr-Ala peptide bonds (in words)", "setting": "[4]; 20 μM addition", "result": "neither catalyse"},
      {"measurement": "relative intensity of the cross signal of the peptide bond Ala-Tyr", "setting": "[4]; 20 μM addition", "result": "3.94 ± 0.87"},
      {"measurement": "relative intensity of the cross signal of the peptide bond Tyr-Ala", "setting": "[4]; 20 μM addition", "result": "2.68 ± 0.75"}
    ]},
    {"compound": "bovine serum albumin: purified reference protein (SIGMA-ALDRICH)", "values": [
      {"measurement": "catalysis of the cis/trans isomerisation of the dipeptide Ala-Leu (in words)", "setting": "[3]; 1 μM purified protein instead of Cyp18", "result": "not able to catalyse the cis/trans isomerisation of the dipeptide"}
    ]}
  ]
}
